Results from ChEMBL document CHEMBL1201862, “PubChem BioAssay data set” (2004).
Active and inactive are the calls of the source.

How the values were obtained:
HEK293 = experiment: EBV LMP1 TES2 canonical NF-kB signalling blockers – cell-based, HEK293, luciferase, cherry-pick, dose response (AID 588343); format: functional; conditions: Homo sapiens
[1] = molecular target: T1, Histone-lysine N-methyltransferase NSD2 (Homo sapiens, UniProt O96028); format: biochemical
T1 sequence (O96028 whole entry): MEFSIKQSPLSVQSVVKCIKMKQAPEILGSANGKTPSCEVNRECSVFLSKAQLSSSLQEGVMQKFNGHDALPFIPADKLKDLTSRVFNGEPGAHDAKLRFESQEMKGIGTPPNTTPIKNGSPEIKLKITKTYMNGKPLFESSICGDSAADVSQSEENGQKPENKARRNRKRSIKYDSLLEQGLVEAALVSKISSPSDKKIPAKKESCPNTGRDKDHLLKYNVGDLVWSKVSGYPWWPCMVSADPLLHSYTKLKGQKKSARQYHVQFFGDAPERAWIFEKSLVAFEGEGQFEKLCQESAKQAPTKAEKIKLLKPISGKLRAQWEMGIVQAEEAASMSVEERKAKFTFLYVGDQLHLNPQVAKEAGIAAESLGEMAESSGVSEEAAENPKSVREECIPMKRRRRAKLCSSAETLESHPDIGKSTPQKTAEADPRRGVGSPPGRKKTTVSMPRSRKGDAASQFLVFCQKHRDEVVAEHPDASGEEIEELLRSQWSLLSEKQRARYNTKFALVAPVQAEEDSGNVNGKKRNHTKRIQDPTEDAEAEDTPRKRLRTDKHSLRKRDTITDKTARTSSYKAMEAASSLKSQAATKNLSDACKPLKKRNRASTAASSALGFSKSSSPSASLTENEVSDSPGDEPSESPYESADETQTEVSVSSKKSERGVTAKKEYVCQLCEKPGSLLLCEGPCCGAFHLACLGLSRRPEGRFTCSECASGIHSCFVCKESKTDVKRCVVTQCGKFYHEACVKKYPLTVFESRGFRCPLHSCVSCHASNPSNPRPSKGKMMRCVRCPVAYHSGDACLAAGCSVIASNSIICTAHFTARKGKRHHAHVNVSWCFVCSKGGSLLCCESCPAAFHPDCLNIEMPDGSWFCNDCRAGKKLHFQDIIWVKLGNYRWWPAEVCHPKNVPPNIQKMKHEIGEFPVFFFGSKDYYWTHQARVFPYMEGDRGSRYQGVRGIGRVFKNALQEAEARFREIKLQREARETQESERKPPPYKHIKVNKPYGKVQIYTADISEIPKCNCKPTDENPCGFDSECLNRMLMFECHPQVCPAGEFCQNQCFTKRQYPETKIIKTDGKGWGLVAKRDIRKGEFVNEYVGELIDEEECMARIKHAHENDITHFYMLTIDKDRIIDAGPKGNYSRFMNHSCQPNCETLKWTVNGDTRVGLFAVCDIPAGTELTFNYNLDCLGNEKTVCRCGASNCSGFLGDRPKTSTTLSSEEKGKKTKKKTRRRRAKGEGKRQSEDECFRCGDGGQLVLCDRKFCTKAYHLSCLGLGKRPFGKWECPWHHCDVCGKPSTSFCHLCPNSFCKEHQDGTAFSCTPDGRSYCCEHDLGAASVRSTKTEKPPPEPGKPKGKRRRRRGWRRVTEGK

[2] = molecular target: T2, Carboxy-terminal domain RNA polymerase II polypeptide A small phosphatase 1 (Homo sapiens, UniProt Q9GZU7); experiment: CTDSP1 inhibitors, concentration-response, biochemical, absorbance readout, ultra-high-throughput screen actives (AID 540297); format: functional
T2 sequence (Q9GZU7 whole entry): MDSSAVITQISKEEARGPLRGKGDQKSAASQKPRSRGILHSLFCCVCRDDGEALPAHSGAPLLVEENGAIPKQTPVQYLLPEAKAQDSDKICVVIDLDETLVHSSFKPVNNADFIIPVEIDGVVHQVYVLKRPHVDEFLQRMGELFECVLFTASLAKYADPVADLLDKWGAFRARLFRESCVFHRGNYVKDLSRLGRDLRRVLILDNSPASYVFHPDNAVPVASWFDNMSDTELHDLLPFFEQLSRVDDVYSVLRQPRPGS

Escherichia coli = experiment: microbe, parasite or virus in culture
[3] = molecular target: T3, Zinc finger protein mex-5 (Caenorhabditis elegans, UniProt Q9XUB2); experiment: potency of MEX-5 RNA-binding blockers – biochemical, C. elegans, fluorescence polarization, dose response (AID 1960)
T3 sequence (Q9XUB2 whole entry): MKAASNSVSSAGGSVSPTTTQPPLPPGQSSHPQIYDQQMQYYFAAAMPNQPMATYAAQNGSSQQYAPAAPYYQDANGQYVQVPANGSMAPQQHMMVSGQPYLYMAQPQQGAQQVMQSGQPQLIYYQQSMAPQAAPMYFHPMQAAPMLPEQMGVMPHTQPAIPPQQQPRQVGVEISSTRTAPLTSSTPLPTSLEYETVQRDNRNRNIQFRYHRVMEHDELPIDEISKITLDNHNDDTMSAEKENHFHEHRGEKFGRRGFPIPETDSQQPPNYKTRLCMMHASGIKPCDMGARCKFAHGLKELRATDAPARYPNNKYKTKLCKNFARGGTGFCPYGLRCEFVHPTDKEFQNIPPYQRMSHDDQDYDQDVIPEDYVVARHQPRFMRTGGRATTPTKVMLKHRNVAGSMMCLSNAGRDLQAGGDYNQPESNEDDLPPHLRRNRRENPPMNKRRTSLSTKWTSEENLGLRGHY

[4] = molecular target: T4, RNA-binding protein pos-1 (Caenorhabditis elegans, UniProt G5EF15); experiment: disruptors of C. elegans POS-1 RNA interaction – biochemical, fluorescence polarization, dose response (AID 1964);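 also: purified POS-1 fused to maltose binding protein made in E. coli; potency of compounds blocking POS-1 binding to fluorescent RNA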
T4 sequence (G5EF15 whole entry): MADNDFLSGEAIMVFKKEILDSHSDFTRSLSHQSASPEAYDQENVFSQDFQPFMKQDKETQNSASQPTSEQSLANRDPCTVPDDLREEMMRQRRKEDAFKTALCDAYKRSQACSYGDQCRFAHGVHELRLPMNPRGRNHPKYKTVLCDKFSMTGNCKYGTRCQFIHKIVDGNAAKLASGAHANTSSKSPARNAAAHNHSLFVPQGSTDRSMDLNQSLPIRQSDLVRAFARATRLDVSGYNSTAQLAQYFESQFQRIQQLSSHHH

[5] = molecular target: T5, Neuropeptide Y receptor type 1 (Homo sapiens, UniProt P25929); format: functional;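 also: HEK293 cells with a CNG channel challenged with NPY then isoproterenol; potency as antagonist that reverses NPY suppression of cAMP signal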
T5 sequence (P25929 whole entry): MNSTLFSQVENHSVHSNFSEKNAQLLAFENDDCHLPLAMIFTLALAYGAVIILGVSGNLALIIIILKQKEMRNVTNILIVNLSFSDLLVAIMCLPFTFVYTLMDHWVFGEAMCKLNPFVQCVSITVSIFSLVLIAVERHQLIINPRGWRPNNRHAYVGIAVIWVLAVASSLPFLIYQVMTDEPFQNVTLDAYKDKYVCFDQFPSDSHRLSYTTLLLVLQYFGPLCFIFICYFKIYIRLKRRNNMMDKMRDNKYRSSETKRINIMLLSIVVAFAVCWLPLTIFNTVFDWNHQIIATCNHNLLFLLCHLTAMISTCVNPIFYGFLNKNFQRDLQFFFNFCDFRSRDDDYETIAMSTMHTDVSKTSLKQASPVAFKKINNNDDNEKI

Cysteine protease ATG4B = molecular target: T6, Cysteine protease ATG4B (Homo sapiens, UniProt Q9Y4P1); format: functional;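 also: Fluorescence-based dose-response confirmation assay measuring inhibition of ATG4B activity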
T6 sequence (Q9Y4P1 whole entry): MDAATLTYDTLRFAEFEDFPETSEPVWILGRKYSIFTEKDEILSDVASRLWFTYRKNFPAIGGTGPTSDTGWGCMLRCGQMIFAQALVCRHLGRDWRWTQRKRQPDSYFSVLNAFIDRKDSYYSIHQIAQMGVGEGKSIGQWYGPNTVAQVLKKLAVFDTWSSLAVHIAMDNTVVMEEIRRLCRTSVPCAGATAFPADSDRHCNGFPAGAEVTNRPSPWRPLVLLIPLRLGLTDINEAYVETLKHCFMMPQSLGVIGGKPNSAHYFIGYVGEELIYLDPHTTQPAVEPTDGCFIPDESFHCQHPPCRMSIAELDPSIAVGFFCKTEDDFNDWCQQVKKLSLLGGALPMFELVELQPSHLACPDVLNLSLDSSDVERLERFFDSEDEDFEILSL

[6] = molecular target: T7, Neuropeptide Y receptor type 2 (Homo sapiens, UniProt P49146); format: functional, cell-based;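 also: HEK293 cells expressing the receptor and a CNG channel; stimulus was NPY near EC95 followed by isoproterenol to raise cAMP; antagonist potency measured as restoring cAMP signal that NPY suppresses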
T7 sequence (P49146 whole entry): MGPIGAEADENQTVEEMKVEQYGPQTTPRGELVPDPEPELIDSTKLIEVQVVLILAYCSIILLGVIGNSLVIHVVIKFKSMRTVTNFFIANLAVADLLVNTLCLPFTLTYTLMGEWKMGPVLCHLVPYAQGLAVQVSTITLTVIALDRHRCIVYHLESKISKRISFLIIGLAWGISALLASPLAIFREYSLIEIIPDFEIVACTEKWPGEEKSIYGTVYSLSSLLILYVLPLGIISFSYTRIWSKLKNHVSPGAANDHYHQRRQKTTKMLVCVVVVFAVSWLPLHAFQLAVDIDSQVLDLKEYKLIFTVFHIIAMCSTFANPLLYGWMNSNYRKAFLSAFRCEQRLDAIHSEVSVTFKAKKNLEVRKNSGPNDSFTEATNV

Phospholipase A2 = Phospholipase A2 (Homo sapiens, UniProt P04054); format: functional;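 also: confirmatory dose-response counterscreen on phospholipase A2, testing hits that came from an ultra-high-throughput screen for ATG4B inhibitors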
[7] = molecular target: T8, Endoribonuclease toxin MazF (Escherichia coli K-12, UniProt P0AE70); experiment: substrate-only fluorescence increase artefacts – biochemical, single-stranded RNase substrate, counter-screen for MazEF activator project, dose response (AID 588502); format: functional
T8 sequence (P0AE70 whole entry): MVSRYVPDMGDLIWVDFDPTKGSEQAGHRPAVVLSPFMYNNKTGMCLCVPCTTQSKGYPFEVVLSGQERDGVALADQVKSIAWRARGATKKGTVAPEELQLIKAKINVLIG

[8] = molecular target: T8, Endoribonuclease toxin MazF; experiment: activation of MazEF endoribonuclease cleavage – biochemical, fluorescence, single-stranded RNA substrate, uHTS hits, dose response (AID 588481); format: functional
[9] = molecular target: T9, Mitochondrial peptide methionine sulfoxide reductase (Bos taurus, UniProt P54149); experiment: Absorbance-based biochemical high throughput dose response assay for activators of Methionine sulfoxide reductase A (MsrA).; format: functional
T9 sequence (P54149 whole entry): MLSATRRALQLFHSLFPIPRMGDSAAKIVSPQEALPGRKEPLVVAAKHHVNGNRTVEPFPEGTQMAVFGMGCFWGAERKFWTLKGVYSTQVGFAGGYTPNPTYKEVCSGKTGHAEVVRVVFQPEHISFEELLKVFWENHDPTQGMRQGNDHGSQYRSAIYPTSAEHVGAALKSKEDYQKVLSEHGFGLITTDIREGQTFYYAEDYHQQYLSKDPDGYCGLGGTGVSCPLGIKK

[10] = molecular target: DNA dC->dU-editing enzyme APOBEC-3A (Homo sapiens, UniProt P31941); experiment: SAR analysis of small molecule inhibitors of APOBEC3A DNA Deaminase via a fluorescence-based single-stranded DNA deaminase assay - Set 2.; format: functional; conditions: read-out: IC50_Mean
[11] = molecular target: DNA dC->dU-editing enzyme APOBEC-3G (Homo sapiens, UniProt Q9HC16); experiment: SAR analysis of small molecule inhibitors of APOBEC3G DNA Deaminase via a fluorescence-based single-stranded DNA deaminase assay - Set 2.; format: functional; conditions: read-out: IC50_Mean
P388 = experiment: cells; format: functional; conditions: Mus musculus
P388/ADR = experiment: cells; format: functional; conditions: Mus musculus
SN12K1 = experiment: cells; format: functional; conditions: Homo sapiens

Phospholipase A2, sequence (P04054 whole entry): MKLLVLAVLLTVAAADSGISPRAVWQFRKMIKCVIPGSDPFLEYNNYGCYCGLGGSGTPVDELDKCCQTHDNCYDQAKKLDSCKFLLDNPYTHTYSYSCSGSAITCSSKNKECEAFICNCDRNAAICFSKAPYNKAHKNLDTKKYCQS
DNA dC->dU-editing enzyme APOBEC-3A, sequence (P31941 whole entry): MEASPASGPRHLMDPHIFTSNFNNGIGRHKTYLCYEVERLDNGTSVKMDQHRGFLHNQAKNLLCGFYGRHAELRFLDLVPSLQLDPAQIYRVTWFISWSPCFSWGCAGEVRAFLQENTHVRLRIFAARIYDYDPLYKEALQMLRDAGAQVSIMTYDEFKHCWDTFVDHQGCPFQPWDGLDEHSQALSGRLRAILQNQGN
DNA dC->dU-editing enzyme APOBEC-3G, sequence (Q9HC16 whole entry): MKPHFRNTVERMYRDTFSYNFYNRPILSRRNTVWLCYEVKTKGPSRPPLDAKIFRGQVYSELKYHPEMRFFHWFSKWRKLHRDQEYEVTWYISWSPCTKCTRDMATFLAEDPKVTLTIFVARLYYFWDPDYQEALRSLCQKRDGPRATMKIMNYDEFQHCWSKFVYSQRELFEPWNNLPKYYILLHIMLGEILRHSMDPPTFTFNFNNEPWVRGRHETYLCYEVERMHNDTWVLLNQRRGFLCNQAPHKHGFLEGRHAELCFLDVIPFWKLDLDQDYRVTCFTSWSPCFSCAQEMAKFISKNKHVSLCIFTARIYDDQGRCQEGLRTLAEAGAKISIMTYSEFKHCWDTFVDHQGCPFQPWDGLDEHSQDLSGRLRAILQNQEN

COc1ccc(-n2c(C)c([N+](=O)[O-])c3ccc(O)c(CN(C)C)c32)cc1
AC50 (HEK293): 2.53 µM (active)

CCOc1cccc(=O)c2c(C)n(-c3ccc(C(=O)O)cc3)c(C)c12
AC50 [1]: 17.2 µM (active)
IC50 [2]: 4.54 µM (active)
AC50 (Escherichia coli): > 150 µM (inactive)
EC50 [3]: 29.6 µM (active)
EC50 [4]: 41.3 µM (active)

CC(Sc1ccc(Cl)cc1)C(=O)Nc1ccccc1-c1ccccc1 (centres undefined)
IC50 [5]: 10.3 µM (not active)
IC50 (Cysteine protease ATG4B): 49.7 µM (inactive)
IC50 [6]: 4.77 µM (active)
IC50 (Phospholipase A2): 4.74 µM (active)

COc1cc(OC)cc(-c2nc3ccccc3c(=O)n2OC(=O)c2ccccc2C)c1
IC50 (Cysteine protease ATG4B): 21.4 µM (inactive)
IC50 (Phospholipase A2): 7.51 µM (active)

CCSc1nnc(N2C(=O)C(O)=C(C(=O)c3ccco3)C2c2cccc(OC)c2)s1 (centres undefined)
EC50 [7]: > 99 µM (inactive)
EC50 [8]: > 99 µM (inactive)

NC(=S)NN=C1CSSC1
EC50 [9]: 12.9 µM (inactive)

CN(Cc1ccccc1)C(=O)c1cc2ncc(Br)cn2n1
IC50 [10]: 34.5 µM (inactive)
IC50 [11]: 77.8 µM (inactive)

CN1c2c(O)nc(N)nc2NCC1CCNc1ccc(C(=O)NC(CCC(=O)O)C(=O)O)cc1 (centres undefined)
GI50 (P388): 4.5 µM (inactive)
GI50 (P388/ADR): 2.49 µM (inactive)
GI50 (SN12K1): 5.5 µM (inactive)

CCCCCCNC(=O)C(C)C1CCC2(C)C=CC(=O)C(C)=C2C1O (centres undefined)
GI50 (P388): 62.5 µM (inactive)
GI50 (P388/ADR): > 42.3 µM (inactive)
GI50 (SN12K1): > 100 µM (inactive)

O=C(NCc1ccccc1)c1cccc(COc2ccc3c(c2)CCC3)c1
AC50 (HEK293): 4.83 µM (active)

N=c1c[n+](N2CCOCC2)[n-]o1
EC50 [7]: > 99 µM (inactive)
EC50 [8]: 30.3 µM (inactive)

COc1cc([C@@H]2c3cc4c(cc3C[C@H]3COC(=O)[C@@H]32)OCO4)cc(OC)c1OC [DESOXYPODOPHYLLOTOXIN]
GI50 (P388): 0.005 µM (active)
GI50 (P388/ADR): 0.0108 µM (active)
GI50 (SN12K1): 0.00596 µM (active)
